Data published in PMC2789237 (Analytical Biochemistry, 2010).

Legend:
[1] = biological target: T1, pteridine reductase 1 (TbPTR1) (Trypanosoma brucei, UniProt O76290); assay: cocrystal structure of ternary complex; cyt c-coupled enzyme inhibition assay; assay type: biochemical
T1 construct: gene PTR1; N-terminal hexahistidine-tagged protein
T1 sequence (O76290 1-268): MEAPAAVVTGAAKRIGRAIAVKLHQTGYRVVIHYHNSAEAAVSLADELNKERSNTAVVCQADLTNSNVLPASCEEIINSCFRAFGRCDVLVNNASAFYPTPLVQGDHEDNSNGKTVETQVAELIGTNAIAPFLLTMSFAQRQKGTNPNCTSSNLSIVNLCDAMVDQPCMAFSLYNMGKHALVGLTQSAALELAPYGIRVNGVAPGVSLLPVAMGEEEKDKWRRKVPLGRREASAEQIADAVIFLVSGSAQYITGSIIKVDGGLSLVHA

[2] = biological target: T1, pteridine reductase 1 (TbPTR1); assay: cocrystal structure of ternary complex with DDD00066641; assay type: binding
[3] = substrate: C[C@H](O)[C@H](O)C1=Nc2c(nc(N)[nH]c2=O)NC1; assay: HPLC enzyme kinetics (Km app), with substrate inhibition; assay type: biochemical, Trypanosoma brucei; conditions: NADPH
[4] = substrate: NC(=O)C1=CN([C@@H]2O[C@H](COP(=O)(O)OP(=O)(O)OC[C@H]3O[C@@H](n4cnc5c(N)ncnc54)[C@H](OP(=O)(O)O)[C@@H]3O)[C@@H](O)[C@H]2O)C=CC1; assay: HPLC enzyme kinetics (Km app, data not shown); assay type: biochemical, Trypanosoma brucei; conditions: varied: cofactor

Cc1ccc(-c2ccc3nc(N)nc(N)c3c2)cc1 [DDD00066641, 6-p-tolylquinazoline-2,4-diamine]
Ki [1]: 3 ± 0.8 nM

NC(=O)c1ccc[n+]([C@@H]2O[C@H](COP(=O)(O)OP(=O)(O)OC[C@H]3O[C@@H](n4cnc5c(N)ncnc54)[C@H](OP(=O)(O)O)[C@@H]3O)[C@@H](O)[C@H]2O)c1 [NADP+]
cocrystal structure of ternary complex with DDD00066641 [2]: The structure of the ternary complex of TbPTR1 with this ligand and the cofactor NADP^+ was obtained by cocrystallization

B1: pteridine reductase 1 (TbPTR1) (Trypanosoma brucei brucei) (protein)
chain: T1 sequence (O76290 1-268)
notes: N-terminal hexahistidine-tagged protein
Km [3]: 0.025 ± 0.0067 µM
Km [4]: 1.6 ± 0.1 µM
